“And” between values parts separate entries of the source, which are not always exact repeats. Identical values can stand only once.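 Tested at 5 concentrations; 48 h exposure; 96-well plates; endpoints linearly interpolated, else capped at highest concentration. GI50 is the concentration that inhibits growth by half. TGI: total growth inhibition.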 Where a SMILES comes first, the peptide text is derived from it. The star is where a group is joined. Cbz = O=C(OCc1ccccc1)*
Experiments:
Assay in all cases: NCI tumour cell line growth inhibition, 48 h
786-0 renal = tested on: 786-0 renal
ACHN renal = tested on: ACHN renal
CAKI-1 renal = tested on: CAKI-1 renal
HCT-15 colon = tested on: HCT-15 colon
HOP-62 NSCLC = tested on: HOP-62 NSCLC
IGROV1 ovarian = tested on: IGROV1 ovarian
K-562 leukemia = tested on: K-562 leukemia
KM12 colon = tested on: KM12 colon
MALME-3M melanoma = tested on: MALME-3M melanoma
NCI-H23 lung = tested on: NCI-H23 lung
OVCAR-4 ovarian = tested on: OVCAR-4 ovarian
PC-3 prostate = tested on: PC-3 prostate
RPMI-8226 leukemia = tested on: RPMI-8226 leukemia
SF-268 CNS = tested on: SF-268 CNS

`CCCc1c2c3ccccc3nc-2nc2ccccn12` showed a TGI (786-0 renal) greater than 100 µM, a TGI (ACHN renal) greater than 100 µM and a TGI (CAKI-1 renal) greater than 100 µM. The TGI (HCT-15 colon) was greater than 100 µM, the TGI (HOP-62 NSCLC) was 90.7 µM and the TGI (IGROV1 ovarian) was greater than 100 µM. It also gave a TGI (K-562 leukemia) greater than 100 µM, a TGI (KM12 colon) greater than 100 µM and a TGI (MALME-3M melanoma) greater than 100 µM. It also gave a TGI (NCI-H23 lung) of 88.6 µM, a TGI (OVCAR-4 ovarian) greater than 100 µM and a TGI (PC-3 prostate) greater than 100 µM. It also gave a TGI (RPMI-8226 leukemia) greater than 100 µM and a TGI (SF-268 CNS) of 70.4 µM.

`CCOC(=O)C(C)NC(=O)C(C)NC(=O)C(C)NC(=O)C(C)NC(=O)C(C)NC(=O)C(C)NC(=O)C(C)NC(=O)OCc1ccccc1` (centres undefined) (Cbz-AAAAAAA-OEt; configuration not given here) showed a TGI (786-0 renal) greater than 100 µM, a TGI (ACHN renal) greater than 100 µM and a TGI (CAKI-1 renal) greater than 100 µM. For the same molecule, the TGI (HCT-15 colon) was greater than 100 µM, the TGI (HOP-62 NSCLC) was greater than 100 µM and the TGI (IGROV1 ovarian) was greater than 100 µM. It also gave a TGI (K-562 leukemia) greater than 100 µM, a TGI (KM12 colon) greater than 100 µM and a TGI (MALME-3M melanoma) greater than 100 µM. The TGI (NCI-H23 lung) was greater than 100 µM, the TGI (OVCAR-4 ovarian) was greater than 100 µM and the TGI (PC-3 prostate) was greater than 100 µM. For the same molecule, the TGI (RPMI-8226 leukemia) was greater than 100 µM and the TGI (SF-268 CNS) was greater than 100 µM.

In the case of `Cc1ccc(C2=Nc3c(N)nc(N)nc3NC(c3ccccc3)C2)cc1` (centres undefined), the TGI (786-0 renal) is reported as 24.3 µM and 31.1 µM, the TGI (ACHN renal) is reported as 28.8 µM and 32 µM and the TGI (CAKI-1 renal) is reported as 24.7 µM and 29.5 µM. For the same molecule, the TGI (HCT-15 colon) was 15.9 µM and 12 µM, the TGI (HOP-62 NSCLC) was 25.5 µM and 22.3 µM and the TGI (IGROV1 ovarian) was 21.2 µM and 21.6 µM. For the same molecule, the TGI (K-562 leukemia) was greater than 100 µM, the GI50 (KM12 colon) was 3.97 µM and 18 µM and the TGI (KM12 colon) was 13.8 µM and 33.7 µM. The TGI (MALME-3M melanoma) was 23.6 µM and 24.5 µM, the TGI (NCI-H23 lung) was 24.1 µM and 25.6 µM and the TGI (OVCAR-4 ovarian) was 27.6 µM and 29.9 µM. The TGI (PC-3 prostate) was 22.9 µM and 24 µM, the TGI (RPMI-8226 leukemia) was greater than 100 µM and the TGI (SF-268 CNS) was 29.9 µM and 31.8 µM.

With `O=C(O)c1ccccc1/C=N\NC1=NCCN1` the TGI (786-0 renal) was greater than 100 µM, the TGI (ACHN renal) was greater than 100 µM and the TGI (CAKI-1 renal) was greater than 100 µM. It also gave a TGI (HCT-15 colon) greater than 100 µM, a TGI (HOP-62 NSCLC) greater than 100 µM and a TGI (IGROV1 ovarian) greater than 100 µM. The TGI (K-562 leukemia) was greater than 100 µM, the TGI (KM12 colon) was greater than 100 µM and the TGI (MALME-3M melanoma) was greater than 100 µM. The TGI (NCI-H23 lung) was greater than 100 µM, the TGI (OVCAR-4 ovarian) was greater than 100 µM and the TGI (PC-3 prostate) was greater than 100 µM. The TGI (RPMI-8226 leukemia) was greater than 100 µM and the TGI (SF-268 CNS) was greater than 100 µM.

`CC(C)[Si]1(C(C)C)OCC2OC(n3ccc(=O)[nH]c3=O)C(O)(CO)C2O[Si](C(C)C)(C(C)C)O1` (centres undefined) showed a TGI (786-0 renal) of 29.3 µM, a TGI (ACHN renal) of 30.8 µM and a TGI (CAKI-1 renal) of 29.6 µM. For the same molecule, the TGI (HCT-15 colon) was 36.2 µM, the TGI (HOP-62 NSCLC) was 33.8 µM and the TGI (IGROV1 ovarian) was 23.9 µM. It also gave a TGI (K-562 leukemia) of 81.6 µM, a TGI (KM12 colon) of 31 µM and a TGI (MALME-3M melanoma) of 28.4 µM. The TGI (NCI-H23 lung) was 12.5 µM, the TGI (OVCAR-4 ovarian) was 26.9 µM and the TGI (PC-3 prostate) was 25.9 µM. For the same molecule, the TGI (RPMI-8226 leukemia) was 26.2 µM and the TGI (SF-268 CNS) was 27.8 µM.

With `Cn1c(=O)n(CC(Br)CBr)c(=O)n(CC(Br)CBr)c1=O` (centres undefined) the TGI (786-0 renal) was greater than 100 µM, the TGI (ACHN renal) was greater than 100 µM and the TGI (CAKI-1 renal) was greater than 100 µM. It also gave a TGI (HCT-15 colon) greater than 100 µM, a TGI (HOP-62 NSCLC) greater than 100 µM and a TGI (IGROV1 ovarian) greater than 100 µM. The TGI (K-562 leukemia) was greater than 100 µM, the TGI (KM12 colon) was greater than 100 µM and the TGI (MALME-3M melanoma) was greater than 100 µM. It also gave a TGI (NCI-H23 lung) greater than 100 µM, a TGI (OVCAR-4 ovarian) greater than 100 µM and a TGI (PC-3 prostate) greater than 100 µM. It also gave a TGI (RPMI-8226 leukemia) of 63.8 µM and a TGI (SF-268 CNS) greater than 100 µM.

Molecule `COC(=O)C1=C(C)NC(C)=C([N+](=O)[O-])C1c1cccc(NO)c1` (centres undefined) has a TGI (786-0 renal) greater than 87.9 µM, a TGI (ACHN renal) greater than 44.9 µM and a TGI (CAKI-1 renal) greater than 52.7 µM. The TGI (HCT-15 colon) was 9.77 µM, the TGI (HOP-62 NSCLC) was greater than 100 µM and the TGI (IGROV1 ovarian) was 22.9 µM. For the same molecule, the TGI (K-562 leukemia) was greater than 27.1 µM, the TGI (KM12 colon) was 6.85 µM and the TGI (MALME-3M melanoma) was 22.9 µM. For the same molecule, the TGI (NCI-H23 lung) was greater than 100 µM, the TGI (OVCAR-4 ovarian) was 40.6 µM and the TGI (PC-3 prostate) was 26.1 µM. For the same molecule, the TGI (RPMI-8226 leukemia) was 12.6 µM and the TGI (SF-268 CNS) was greater than 100 µM.
